# Measured values as given in patent publication US20230346743A1, “COMBINATION CANCER THERAPIES” (The Board of Regents of the University of Oklahoma, priority 2018, published 2023).
# Legend:
# A2780 (WT p53) = test: MTT cytotoxicity assay and Chou-Talalay drug interaction; format: cell-based, human
# Method: (§1) Cells plated at 2000 cells/well in 96 well microtiter plates were incubated for 36-48 h and treated with a range of doses and combinations of SHetA2 and PRIMA-1 or PRIMA-1^MET, or the same volume of DMSO solvent for 72 h of incubation. The percentage of growth for single drug treatments or fold effect (1 - ratio of treated/untreated growth) was measured using the CellTiter 96 AQueous Non-Radioactive Cell Proliferation Assay (Promega, Madison, WI, USA) and the BioTeK SYNERGY H1 (BioTeK, Winooski, VT, USA). Each experiment was performed in triplicate and repeated 2-3 times.
# (§2) The potencies (IC50′s) of SHetA2 or PRIMA-1 were determined using GraphPad Prism 6 software analysis of average MTT Optical Density vs drug dose. […] Single drug treatments at doses surrounding the IC50 values were evaluated parallel. All treatments were performed in triplicate and averages used to draw isobolograms and calculate combination indices (CI) and dose-reduction indices (DRIs) using CompuSyn Software according to the Chou and Talalay method (op cit). All experiments were repeated at least twice for each cell line to confirm results.
# FTSECs = test: as above; format: cell-based, human; settings: hFTSECs
# Method: as §1, §2
# [1] = Toxicity in the MESOV mouse model (body weight, ascites, kidney and liver histology); format: in vivo; settings: mouse, in vivo, ip
# Method: Four-week-old female athymic nude mice (NCr-Foxn1^nu) were obtained from Taconic Biosciences under an approved Institutional Animal Care and Use Committee (IACUC) protocol. Mice were acclimatized for two weeks, fed with a standard diet and ear tagged during the acclimatization period. The timing to tumor development after intraperitoneal injection with various amounts of MESOV cells was determined in a pilot study prior. In the intervention experiment, 6-week-old mice were injected with 20 million MESOV human ovarian cancer cells in their intraperitoneal region. Drug treatment was initiated 4 weeks after the injection of cancer cells. Mice were randomized to four treatment groups before the start of treatment based on their body weight. There was no significant (one-way ANOVA, p >0.999) difference in body weight between groups at the start of treatment. Twelve mice were allocated to each group based on the power analysis performed while designing experiment. The sample size was determined to provide over 80% power to detect a 915 mm^3 difference in tumor volume between PRIMA-1^MET treatment alone and the drug combination treatment using a two-sided 0.05 level t-test. SHetA2 was administered by gavage at 60 mg/kg in 30% Kolliphor HS15 (Sigma). Controls were gavaged with Kolliphor HS15 (30% in water). PRIMA-1^MET (10 mg/kg) was dissolved in phosphate buffered saline and injected into the peritoneum of mice every other day. Initially SHetA2 dosing was administered every day for two weeks in SHetA2 alone and drug combination groups, and then switched to every other day for the next three weeks due to the stress caused to the mice by daily gavage. Oral gavaging was performed with sterile disposable plastic feeding tubes 20 ga × 38 mm (Instech Laboratories, Inc., Plymouth Meeting, PA, USA). Three mice in the drug combination group died after two weeks of drug treatment due to gavaging incidents. Body weights were recorded and animal health was monitored weekly. After the end of drug intervention period, all mice were euthanized by CO2 asphyxiation followed by exsanguination, their tumors and other vital organs were collected for further analysis. After measuring the total tumor weight, a portion of the tumors were snap frozen in liquid nitrogen and another portion was formalin fixed. The formalin fixed tissue samples were paraffin embedded, sectioned and stained with hematoxylin and eosins for histology studies. An experienced pathologist reviewed blinded histology slides for kidney and liver toxicity.
# [2] = test system: SiHa cervical cancer cell line xenograft; test: SiHa xenograft tumor growth; format: in vivo, mice; settings: gavage 60 mg/kg SHetA2, 100 mg/kg palbociclib or the combination every other day
# Source text: FIG. 49. […] Controls were gavaged with the same Kolliphor HS15 used to suspend the drugs. Using a generalized estimating equations (GEE) model to analyze tumor growth treated as a continuous variable, there was a significant additive effect of SHetA2 (p<0.001) and palbociclib (p<0.001) on day 65 of treatment. This additive effect between SHetA2 (p=0.001) and palbociclib (p=0.051) was trending significant at day 63 of treatment. Additionally, SHetA2 starts to show significant tumor suppressing activity as early as day 63 of treatment (p=0.045).
# p53 = p53 cellular localization (immunofluorescence, Western blots of fractions) in ovarian cancer cell lines; format: cell-based, human; settings: A2780 and OV90 ovarian cancer cell lines
# Method: Cytoplasmic and nuclear protein fractions were isolated from cultures using NE-PER Nuclear and Cytoplasmic Extraction Reagents (ThermoFisher, Waltham, MA, USA) and the Mitochondria/Cytosol Fractionation Kit (ThermoFisher, Waltham, MA, USA) and protein concentrations determined with BCA reagent (ThermoFisher, Waltham, MA, USA).
# Proteins were extracted from cell cultures using M-PER mammalian protein extraction reagent (ThermoFisher, Waltham, MA, USA) and volumes corresponding to 30 µg determined with BCA reagent (ThermoFisher, Waltham, MA, USA) were electrophoresed into a SDS-PAGE gel and transferred to PVDF membranes. Membranes were blocked (5% dry skim milk powder in TBST buffer) for at least 1 h or overnight, washed thrice with TBST and then incubated with primary antibody: p53 DO-1, β-actin, histone H3, GAPDH (Santa Cruz Biotechnology, Dallas, TX, USA) and mortalin, Tom20, V5 tag antibodies, p21, PARP, SLC7A11, caspase 3 (Cell Signaling Technology, Danvers, MA, USA) for at least 1 h or overnight. After three washes, membranes were incubated with anti-mouse HRP conjugated (Santa Cruz Biotechnology, Dallas, TX, USA) or anti-Rabbit HRP conjugated (Cell Signaling Technology, Danvers, MA, USA) for 40 min. Membranes then were washed and developed with ECL reagents (BioRad, Hercules, CA, USA). Bands were imaged and quantified (ChemiDoc imaging system with Image Lab Software/BioRad). […]
smiles,measurement,setting,value
CC1(C)CC(C)(C)c2cc(NC(=S)Nc3ccc([N+](=O)[O-])cc3)ccc2S1 [SHetA2],IC50,"A2780 (WT p53); A2780 cells with shRNA knockdown of p53, MTT",4.8 µM
same,IC50,"A2780 (WT p53); A2780 cells without p53 knockdown (empty vector), MTT",2.8 µM
same,SHetA2 sensitivity compared with ovarian cancer cell lines,FTSECs,least sensitive
same,Effects on body weight or ascites (abdominal size),[1],no significant effects on body weight or ascites
same,Kidney or liver toxicity (H & E histology),[1],did not cause kidney or liver toxicity
same,SiHa xenograft tumor growth,[2],significantly reduce SiHa cervical cancer cell line xenograft tumor growth
same,p53 in nuclei (immunofluorescent imaging),p53,dose-dependent elevation of both wild type and mutant p53 in nuclei
